According to patent publication US9469648B2, “Reversal of drug-induced neuromuscular block using novel molecular containers” (University of Maryland, College Park, priority 2010, dated 2016):
Read-outs that look alike come from different tables or passages of the source.

What was measured:
[1] = Binding affinities of compounds towards Motor2
[2] = system: HEK293; assay: AK (adenylate kinase release) cytotoxicity assay, HEK293; type: cell-based
Source text: FIG. 27. Toxicology of Motor1 using the human kidney cell line HEK293. Results from (A) MTS assay (B) AK assay. Untreated population (UT), Distilled water (D), Erythromycin (E), Erythromycin Estolate (EE).
(§1) Toxicity Studies: To measure the cellular toxicity of Motor1 we use two complementary assays: an MTS (CellTiter 96 AQueous Kit®) assay that measures cellular metabolism, and a cytotoxicity assay (Toxilight®BioAssay Kit) that measures cell death via the release of the cytosolic enzyme adenylate kinase into the supernatant. Both assays were used with two different cell lines commonly used in drug toxicity studies, HEK293 and HepG2 cell lines. HEK293, a human kidney cell line, is used to assess the effect of the drug candidate on the renal system and HepG2, a human hepatocyte cell line, is used to assess the response of liver cells where drugs are metabolized. Both assays included the use of an untreated population, and cells treated with distilled water, erythromycin and erythromycin estolate. Erythromycin is a commercially available drug widely used to treat bacterial infections. […] […].
(§2) Both cell lines were incubated with the containers (0.01, 0.1, 1 and 10 mM) for 2 days prior to analysis with the two assays. Relative absorbance and luminescence data was normalized to percent cell viability (MTS) and cell death (AK). For the MTS assay, the untreated cells were set at 100% cell viability while the cell population treated with distilled water was set at a 100% cell death for the AK assay.

[3] = Binding of Motor1 and Motor2 with Ketamine (Rhodamine 6G indicator competition, UV-VIS); details: Rhodamine 6G displacement titration, 20 mM phosphate buffer pH 7.4
[4] = Binding of Motor1 and Motor2 with Etomidate
[5] = Self-association study by 1H NMR at varied concentration; type: physicochemical; details: 20 mM NaD2PO4, pD=7.4, 1H NMR
[6] = system: HepG2; type: cell-based; details: untreated population 60%
Source text: FIG. 28. Toxicology of Motor1 using the human liver cell line HepG2. Results from (A) MTS assay (B) AK assay. Untreated population (UT), Distilled water (D), Erythromycin (E), Erythromycin Estolate (EE).
as §1, §2

[7] = Tolerance in mice after tail vein injection (body weight); type: in vivo; details: tail vein injection at day 0, 4 and 8, weight monitored
Protocol: FIG. 30. […] Indicated amounts of Motor1 were injected into the tail vein of outbred Swiss Webster mice at day 0, 4 and 8. The weight of each mouse was monitored over time and there were 5 mice per experimental group.
Indicated amounts of Motor1 were injected into the tail vein of outbred Swiss Webster mice at day 0, 4 and 8. The weight of each mouse was monitored over time and there were 5 mice per experimental group.

[8] = system: rocuronium-induced neuromuscular block; assay: Reversal of rocuronium-induced neuromuscular block in anesthetized rats; type: in vivo; details: for Time until normal breathing recovered: rocuronium 3.5 mg/kg, placebo 720 s; for Time until quadriceps femoris twitch height normalized: rocuronium, placebo 960 s
Protocol: (§3) Spontaneous breathing was maintained during surgery and if possible according to normal protocol. Rats lay in the supine position with the head supported in a neutral position in the midline on a soft piece of tissue. The left femoral vein and artery were cannulated for drug infusion and blood sampling. […] Corning, N.Y., USA) and continuous measurement of blood pressure (PowerLab; ADInstruments, Colorado Springs, Mo.) and heart rate were performed. If mechanical ventilation was necessary animals were ventilated through a tracheostomy (SAR-830; CWE, Ardmore, Pa., USA). Rectal temperature was kept at 37.0±0.1° C. using a thermostatic heating pad (FHC, Bowdoinham, Me.). Level of anesthesia was maintained throughout the experiment to eliminate cardiovascular response to tail pinch. In all treatment groups, systemic physiological parameters were kept well within normal range. The right leg was shaved and the femoral nerve was stimulated supramaximally with subcutaneous needle electrodes, and the evoked response of the quadriceps femoris muscle was measured by accelerometry, with the TOF-Watch SX Monitor (Organon Ireland Ltd, a part of Schering-Plough Corporation, Dublin, Ireland), as described previously (Fassbender et al, Anesthesiology 2007). The transducer was fixed to the skin ventromedially at the proximal end of the thigh, next to the tibial tuberosity (insertion point of the patellar ligament). […] Endpoints included time to recovery of spontaneous breathing, twitch height as well as TOF-ratio.

[9] = system: cisatracurium-induced neuromuscular block; assay: Reversal of cisatracurium-induced neuromuscular block in anesthetized rats; type: in vivo; details: for Time until normal breathing recovered / Time until quadriceps femoris twitch height normalized: cisatracurium; for Time until normal breathing recovered: placebo 750 (17) s, means (SD); for Time until quadriceps femoris twitch height normalized: placebo 1002 (122) s
Protocol: as §3

[10] = system: human erythrocytes
[11] = rat, in vivo
[12] = rat, in vivo; remark: listed apart in the source
[13] = system: ketamine anesthesia; assay: Reversal of ketamine anesthesia in rats; type: in vivo
[14] = Binding constants of Motor1 towards guests; details: host Motor1
[15] = ketamine anesthesia, Motor2 200 mg

Compound: COc1ccc(CC2c3cc(OC)c(OC)cc3CC[N+]2(C)CCC(=O)OCCCCCOC(=O)CC[N+]2(C)CCc3cc(OC)c(OC)cc3C2Cc2ccc(OC)c(OC)c2)cc1OC (centres unmarked) [Atracurium besilate]
- Ka (M^−1) with Motor2 ([1]; host Motor2): 1.0 ± 0.1 × 10^9 M^−1

Compound: CCC(=O)O[C@H]1[C@H](O[C@@H]2[C@@H](C)[C@H](O[C@H]3C[C@@](C)(OC)[C@@H](O)[C@H](C)O3)[C@@H](C)C(=O)O[C@H](CC)[C@@](C)(O)[C@H](O)[C@@H](C)C(=O)[C@H](C)C[C@@]2(C)O)O[C@H](C)C[C@@H]1N(C)C [Erythromycin estolate]
- Percent cell death (AK) ([2]; human, 2 days, 1 mM): 49%

Compound: CC[C@H]1OC(=O)[C@H](C)[C@@H](O[C@H]2C[C@@](C)(OC)[C@@H](O)[C@H](C)O2)[C@H](C)[C@@H](O[C@@H]2O[C@H](C)C[C@H](N(C)C)[C@H]2O)[C@](C)(O)C[C@@H](C)C(=O)[C@H](C)[C@@H](O)[C@]1(C)O [Erythromycin]
- Percent cell death (AK) ([2]; HEK293, 1 mM): 25%

Compound: CC12N3Cc4c(OCCCS(=O)(=O)[O-])ccc(OCCCS(=O)(=O)[O-])c4CN1C(=O)N1CN4C(=O)N5CN6C(=O)N7CN8C(=O)N9Cc%10c(OCCCS(=O)(=O)[O-])ccc(OCCCS(=O)(=O)[O-])c%10CN%10C(=O)N(CN%11C(=O)N(CN%12C(=O)N(CN(C3=O)C12C)C4C%125)C6C%117)C8(C)C%109C.[Na+].[Na+].[Na+].[Na+] (centres unmarked) [Motor1]
- Binding constant (Ka) with Ketamine [3]: 39020 M⁻¹
- Binding constant with Etomidate [4]: 35318 M⁻¹
- Ka, two-fold self-association model [5]: 47 M⁻¹
- Percent cell death (AK) ([2]; HEK293, all concentrations (0.01, 0.1, 1 and 10 mM)): below 5%
- % cell death (AK) ([6]; HepG2, 0.01 mM): 55%
- % cell death (AK) ([6]; HepG2, 0.1 mM): 56%
- % cell death (AK) ([6]; HepG2, 1 mM): 50%
- % cell death (AK) ([6]; HepG2, 10 mM): 17%
- Tolerance in mice [7]: well tolerated
- Mean recovery of spontaneous breathing ([8]; complete rocuronium-induced block, 90 mg as printed): 723 s
- Mean recovery of spontaneous breathing ([8]; complete rocuronium-induced block, dose not given): 10 s
- Reversal of rocuronium (in words) ([8]; rats, Motor1 10, 20, 30 mg): reversed rocuronium effectively, in a dose-dependent fashion
- Time until normal breathing recovered ([8]; Motor1 10 mg): 120 ± 15 s
- Time until normal breathing recovered ([8]; Motor1 20 mg): 15 ± 5 s
- Time until normal breathing recovered ([8]; Motor1 30 mg): 8 ± 3 s
- Time until quadriceps femoris twitch height normalized ([8]; Motor1 10 mg): 240 s
- Time until quadriceps femoris twitch height normalized ([8]; Motor1 20 mg): 120 s
- Time until quadriceps femoris twitch height normalized ([8]; Motor1 30 mg): 60 s
- Time until normal breathing recovered ([9]; 30 mg Motor1): 28 (6) s
- Time until normal breathing recovered ([9]; 60 mg Motor1): 11 (4) seconds
- Time until quadriceps femoris twitch height normalized ([9]; first Motor1 dose listed (dose not given; 15 mg)): 266 (17) s
- Time until quadriceps femoris twitch height normalized ([9]; second Motor1 dose listed (30 mg)): 130 (14) s
- Time until quadriceps femoris twitch height normalized ([9]; third Motor1 dose listed (60 mg)): 68 (10) s
- Percent hemolysis [10]: ≤ 20%
- Toxicity to human erythrocytes (overall) [10]: non-toxic
- Arterial blood gas parameters pH, pCO2, and pO2 [11]: did not change
- Heart rate and mean arterial blood pressure [11]: did not change
- Side effects on arterial blood-gas analysis, EKG, arterial blood pressure, heart rate [11]: did not have any side effects
- Motor1 concentration in the urine relative to plasma [12]: equals concentration in the plasma

Compound: CC12N3Cc4c(c(OCCCS(=O)(=O)[O-])c5ccccc5c4OCCCS(=O)(=O)[O-])CN1C(=O)N1CN4C(=O)N5CN6C(=O)N7CN8C(=O)N9Cc%10c(c(OCCCS(=O)(=O)[O-])c%11ccccc%11c%10OCCCS(=O)(=O)[O-])CN%10C(=O)N(CN%11C(=O)N(CN%12C(=O)N(CN(C3=O)C12C)C4C%125)C6C%117)C8(C)C%109C.[Na+].[Na+].[Na+].[Na+] (centres unmarked) [Motor2]
- Binding constant (Ka) with Ketamine [3]: 193490 M⁻¹
- Binding constant with Etomidate [4]: 36812 M⁻¹
- Ka, two-fold self-association model [5]: 624 M⁻¹
- Mean time to recovery of the twitch height to 90% ([8]; complete rocuronium-induced block, 90 mg, placebo 19 minutes): 2.5 min
- Speed of reversal of cisatracurium, twitch height recovery (comparison) ([9]; low-dose Motor2 versus high-dose Motor1): reverses the benzylisoquinolinum cisatracurium faster than high-dose 1
- Reversal of ketamine anesthesia (in words) ([13]; ketamine 1500 μg/kg/min, Motor2 200 mg at 60 minutes): reverses ketamine anesthesia
- Electroencephalogram (EEG) [13, 15]: wakefulness-like electrical activity
- Respiratory rate and arterial blood pressure [13, 15]: increased
- Time until the rat woke up after injection ([13]; steady-state ketamine infusion, Motor2 200 mg): ≤ 2 min
- Side effects on arterial blood-gas analysis, EKG, arterial blood pressure, heart rate [11]: did not have any side effects

Compound: Nc1ccc2cc3ccc(N)cc3nc2c1 [Proflavin]
- Ka (M^−1) with Motor2 ([1]; host Motor2): 7.8 ± 0.8 × 10^8 M^−1

Compound: COc1ccc(CC2c3cc(OC)c(OC)cc3CC[N+]2(C)CCC(=O)OCCCCCOC(=O)CC[N+]2(C)CCc3cc(OC)c(OC)cc3C2Cc2ccc(OC)c(OC)c2)cc1OC (centres unmarked) [atracurium]
- Ka, binding constant of Motor1 towards guest [14]: 1.4 ± 0.1 × 10^6

Compound: CC[N+](CC)(CC)CCOc1cccc(OCC[N+](CC)(CC)CC)c1OCC[N+](CC)(CC)CC [gallamine]
- Ka, binding constant of Motor1 towards guest [14]: 6.2 ± 0.5 × 10^6
- Ka (M^−1) with Motor2 [1]: 3.2 ± 0.4 × 10^8 M^−1

Compound: COc1cc2c3cc1Oc1cc(ccc1O)C[C@@H]1c4c(cc(OC)c(O)c4Oc4ccc(cc4)C[C@@H]3N(C)CC2)CC[N+]1(C)C [tubocurarine]
- Ka, binding constant of Motor1 towards guest [14]: 4.7 ± 0.2 × 10^5

Compound: CC(=O)O[C@H]1C[C@@H]2CC[C@@H]3[C@H](CC[C@@]4(C)[C@H]3C[C@H]([N+]3(C)CCCCC3)[C@@H]4OC(C)=O)[C@@]2(C)C[C@@H]1N1CCCCC1 [vecuronium]
- Ka, binding constant of Motor1 towards guest [14]: 5.8 ± 0.9 × 10^6
- Ka (M^−1) with Motor2 [1]: 1.6 ± 0.2 × 10^9 M^−1

Compound: Cyclohexanediamine
- Ka (M^−1) with Motor2 ([1]; host Motor2): 2.1 ± 0.2 × 10^8 M^−1
